The molecules below were run on lacto-N-biosidase (assay: Substrate specificity of lacto-N-biosidase (hydrolysis of oligosaccharides, HPLC)). Conditions: not given.
Type: biochemical, Streptomyces sp 142
Protocol: Lacto-N-biosidase was assayed by being incubated for 20 min with the compound described by formula II below at the concentration of 2 μM at 37° C. in 10 μl of 100 mM potassium phosphate buffer, pH 6.0.
wherein PA represents a pyridylamino residue. […] Then 40 μl of 1% trifluoroacetic acid was added to the reaction mixture to stop the reaction. A portion containing 10 pmol of PA-oligosaccharides was then analyzed by HPLC with an amino-silica column (Palpak Type N column, 4.6×250 mm, Takara Shuzo), and detected by fluorescence with the excitation and emission wavelengths of 310 and 380 nm, respectively. Elution was at the flow rate of 1.0 ml/min at 40° C. with a 70:30 (v/v) mixture of acetonitrile and 0.2M triethylamine acetate buffer, pH 7.3. The degree of hydrolysis was calculated from the peak areas of the substrate and the product, PA-lactose, in comparison with the peak area of the corresponding standard PA-oligosaccharide. One unit of activity was defined as the amount of enzyme needed to release 1 μmol of PA-lactose per minute under the conditions described above.

Molecule | products of hydrolysis by lacto-N-biosidase
CC(=O)N[C@H]1[C@H](Oc2ccc([N+](=O)[O-])cc2)O[C@H](CO)[C@@H](O)[C@@H]1O[C@@H]1O[C@H](CO)[C@H](O)[C@H](O)[C@H]1O [formula V, Galβ1--3GlcNAcβ1--p--nitrophenol] | lacto-N-biose and p-nitrophenol
CC(=O)N[C@H]1[C@H](O[C@@H]([C@H](O)[C@H](CNc2ccccn2)NC(C)=O)[C@H](O)CO)O[C@H](CO)[C@@H](O[C@@H]2O[C@H](CO[C@H]3O[C@H](CO)[C@@H](O)[C@H](O)[C@@H]3O[C@@H]3O[C@H](CO)[C@@H](O[C@@H]4O[C@H](CO)[C@H](O)[C@H](O)[C@H]4O)[C@H](O)[C@H]3NC(C)=O)[C@@H](O)[C@H](O[C@H]3O[C@H](CO)[C@@H](O[C@@H]4O[C@H](CO)[C@@H](O)[C@H](O[C@@H]5O[C@H](CO)[C@H](O)[C@H](O)[C@H]5O)[C@H]4NC(C)=O)[C@H](O)[C@@H]3O[C@@H]3O[C@H](CO)[C@@H](O[C@@H]4O[C@H](CO)[C@H](O)[C@H](O)[C@H]4O)[C@H](O)[C@H]3NC(C)=O)[C@@H]2O)[C@@H]1O [formula III] | lacto-N-biose and the N-acetyllactosamine type of biantennary sugar chain

Same assay, conditions: oligosaccharides labelled with 2-aminopyridine

Molecule | hydrolysis by lacto-N-biosidase
sialyl lacto-N-tetraose | did not hydrolyze
CC(=O)N[C@H]1[C@H](O[C@H]2[C@@H](O)[C@@H](CO)O[C@@H](O[C@H]3[C@H](O)[C@@H](O)C(O)O[C@@H]3CO)[C@@H]2O)O[C@H](CO)[C@@H](O)[C@@H]1O (stereo partly drawn) [lacto-N-triose] | did not hydrolyze
CC(=O)N[C@H]1[C@H](O[C@H]2[C@@H](O)[C@@H](CO)O[C@@H](O[C@@H]([C@H](O)[C@@H](O)CNc3ccccn3)[C@H](O)CO)[C@@H]2O)O[C@H](CO)[C@@H](O[C@@H]2O[C@H](CO)[C@H](O)[C@H](O)[C@H]2O)[C@@H]1O | did not hydrolyze
CC(=O)N[C@H]1[C@H](O[C@@H]2[C@H](O)[C@@H](O)[C@H](O[C@@H]([C@H](O)[C@@H](O)CNc3ccccn3)[C@H](O)CO)O[C@@H]2CO)O[C@H](CO)[C@H](O)[C@@H]1O[C@@H]1O[C@H](CO)[C@H](O)[C@H](O)[C@H]1O [asialo GM1 tetrasaccharide] | did not hydrolyze
CC(=O)N[C@H]1[C@H](O[C@H]2[C@@H](O)[C@@H](CO)O[C@@H](O[C@@H]([C@H](O)[C@@H](O)CNc3ccccn3)[C@H](O)CO)[C@@H]2O)O[C@H](CO)[C@@H](O)[C@@H]1O[C@@H]1O[C@H](CO)[C@H](O)[C@H](O)[C@H]1O[C@@H]1O[C@@H](C)[C@@H](O)[C@@H](O)[C@@H]1O | did not hydrolyze
CC(=O)N[C@H]1[C@H](O[C@H]2[C@@H](O)[C@@H](CO)O[C@@H](O[C@@H]([C@H](O)[C@@H](O)CNc3ccccn3)[C@H](O)CO)[C@@H]2O)O[C@H](CO)[C@@H](O)[C@@H]1O[C@@H]1O[C@H](CO)[C@H](O)[C@H](O)[C@H]1O | specifically hydrolyzed
poly-N-acetyllactosamine | did not hydrolyze

Each molecule was assayed on lacto-N-biosidase and α-1,3/4 fucosidase (assay: Digestion with a mixture of lacto-N-biosidase and α-1,3/4 fucosidase). Conditions: lacto-N-biosidase plus α-1,3/4 fucosidase.
Type: biochemical
Text: The method and the reagent of this invention can be used in studies done to identify type 1 structures in glycoconjugates, to distinguish type 1 oligosaccharides from type 2 oligosaccharides, and to elucidate the functions of lacto-N-biosyl residues in glycoconjugates. In particular, with its use, the Le^a structure can be easily distinguished from the Le^x structure by use of lacto-N-biosidase and α-1,3/4 fucosidase (Ogata-Arakawa et al., Arch. Biochem. Biophys. 181, 353, 1977; Scudder et al., J. Biol. Chem. 265, 16472, 1990; Sano et al., J. Biol. Chem. 267, 1522, 1992).

Molecule | product obtained on treatment with the mixture of the two enzymes
CC(=O)N[C@H]1[C@H](O[C@H]2[C@@H](O)[C@@H](CO)O[C@@H](O[C@@H]([C@H](O)[C@@H](O)CNc3ccccn3)[C@H](O)CO)[C@@H]2O)O[C@H](CO)[C@@H](O[C@@H]2O[C@H](CO)[C@H](O)[C@H](O)[C@H]2O)[C@@H]1O[C@@H]1O[C@@H](C)[C@@H](O)[C@@H](O)[C@@H]1O [PA-lacto-N-fucopentaose III] | PA-lacto-N-neotetraose was obtained
CC(=O)N[C@H]1[C@H](O[C@H]2[C@@H](O)[C@@H](CO)O[C@@H](O[C@@H]([C@H](O)[C@@H](O)CNc3ccccn3)[C@H](O)CO)[C@@H]2O)O[C@H](CO)[C@@H](O[C@@H]2O[C@@H](C)[C@@H](O)[C@@H](O)[C@@H]2O)[C@@H]1O[C@@H]1O[C@H](CO)[C@H](O)[C@H](O)[C@H]1O [PA-lacto-N-fucopentaose II] | PA-lactose was obtained

What follows are molecules tested on lacto-N-biosidase (assay: Structural analysis of reaction products of lacto-N-biosidase (Example 3)). Conditions: about 100 nmol substrate, 0.6 mU enzyme, 60 h at 37° C., pH 6.0.
Type: biochemical, Streptomyces sp 142
Protocol: To elucidate the reaction products of lacto-N-biosidase obtained by the method of example 1, the structures of the enzyme reaction products were analyzed in detail with the PA-oligosaccharide shown as formula VI below as the substrate. PA-oligosaccharide described by formula VI (about 100 nmol; Takara Shuzo Co.) mixed with lacto-N-biosidase (total, 0.6 mU) prepared as described in example 1 was digested for 60 h at 37° C. in a final volume of 360 μl containing 0.1M potassium phosphate buffer, pH 6.0. The reaction mixture was pyridylaminated by the method described in U.S. Pat. No. 4,975,533 and analyzed by HPLC with an amino-silica column. There were two peaks of PA-oligosaccharides: fractions 1 and 2. The elution position of fraction 1 was the same as that of the PA-oligosaccharide described by formula VII, and the elution position of fraction 2 was the same as that of PA-oligosaccharide described by formula VIII below. The amounts of these two products, calculated from the peak areas of fractions 1 and 2 , were identical to that of the PA-oligosaccharide substrate of formula VI.

Molecule | linkage cleaved by the enzyme reaction
CC(=O)N[C@H]1[C@H](O[C@@H]([C@H](O)[C@H](CNc2ccccn2)NC(C)=O)[C@H](O)CO)O[C@H](CO)[C@@H](O[C@@H]2O[C@H](CO[C@H]3O[C@H](CO)[C@@H](O)[C@H](O)[C@@H]3O[C@@H]3O[C@H](CO)[C@@H](O[C@@H]4O[C@H](CO)[C@H](O)[C@H](O)[C@H]4O)[C@H](O)[C@H]3NC(C)=O)[C@@H](O)[C@H](O[C@H]3O[C@H](CO)[C@@H](O[C@@H]4O[C@H](CO)[C@@H](O)[C@H](O[C@@H]5O[C@H](CO)[C@H](O)[C@H](O)[C@H]5O)[C@H]4NC(C)=O)[C@H](O)[C@@H]3O[C@@H]3O[C@H](CO)[C@@H](O[C@@H]4O[C@H](CO)[C@H](O)[C@H](O)[C@H]4O)[C@H](O)[C@H]3NC(C)=O)[C@@H]2O)[C@@H]1O [formula VI] | only lacto-N-biosidic linkage in the substrate was cleaved

Reference: patent publication US5395757A, “Method for the hydrolysis of sugar compounds and reagent therefor” (Takara Shuzo Co., Ltd., priority 1991, dated 1995)
